Earlier results on one compound are cited in US9561285B2, “Carrier-linked carbamate prodrug linkers” (Ascendis Pharma AS, priority 2010, dated 2017).

The conditions of this data set: buffer, pH 7.

For the compound `O=C(Nc1ccccc1)Oc1ccc([N+](=O)[O-])cc1` [p-nitrophenyl-O—CO—NH-phenyl], the half-life of hydrolysis was 26 s.
